# Experimental data published in PubChem BioAssay (NCI).
#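 Here, GI50 denotes the concentration required for 50% inhibition of growth. TGI: concentration producing complete growth inhibition.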
# Assays:
# Assay in all cases: inhibition of tumour cell growth, NCI panel, 384-well format
# 786-0 renal = tested on: 786-0 renal
# A549 NSCLC = tested on: A549 NSCLC
# ACHN renal = tested on: ACHN renal
# BT-549 breast = tested on: BT-549 breast
# CCRF-CEM leukemia = tested on: CCRF-CEM leukemia
# COLO 205 colon = tested on: COLO 205 colon
# DU-145 prostate = tested on: DU-145 prostate
# HCC-2998 colon = tested on: HCC-2998 colon
# HCT-116 colon = tested on: HCT-116 colon
# HL-60(TB) leukemia = tested on: HL-60(TB) leukemia
# HOP-62 NSCLC = tested on: HOP-62 NSCLC
# HOP-92 NSCLC = tested on: HOP-92 NSCLC
# HT29 colon = tested on: HT29 colon
# K-562 leukemia = tested on: K-562 leukemia
# KM12 colon = tested on: KM12 colon
# LOX IMVI melanoma = tested on: LOX IMVI melanoma
# M14 melanoma = tested on: M14 melanoma
# MALME-3M melanoma = tested on: MALME-3M melanoma
# MCF7 breast = tested on: MCF7 breast
# MDA-MB-231 breast = tested on: MDA-MB-231 breast
# MDA-MB-435 melanoma = tested on: MDA-MB-435 melanoma
# MDA-MB-468 breast = tested on: MDA-MB-468 breast
# NCI-H460 NSCLC = tested on: NCI-H460 NSCLC
# NCI-H522 lung = tested on: NCI-H522 lung
# NCI/ADR-RES ovarian = tested on: NCI/ADR-RES ovarian
# OVCAR-3 ovarian = tested on: OVCAR-3 ovarian
# OVCAR-5 ovarian = tested on: OVCAR-5 ovarian
# PC-3 prostate = tested on: PC-3 prostate
# RPMI-8226 leukemia = tested on: RPMI-8226 leukemia
# RXF 393 renal = tested on: RXF 393 renal
# SF-268 CNS = tested on: SF-268 CNS
# SF-295 CNS = tested on: SF-295 CNS
# SF-539 CNS = tested on: SF-539 CNS
# SK-MEL-2 melanoma = tested on: SK-MEL-2 melanoma
# SK-MEL-28 melanoma = tested on: SK-MEL-28 melanoma
# SK-MEL-5 melanoma = tested on: SK-MEL-5 melanoma
# SN12C renal = tested on: SN12C renal
# SNB-19 CNS = tested on: SNB-19 CNS
# SNB-75 CNS = tested on: SNB-75 CNS
# SR leukemia = tested on: SR leukemia
# SW-620 colon = tested on: SW-620 colon
# T-47D breast = tested on: T-47D breast
# TK-10 renal = tested on: TK-10 renal
# U251 glioblastoma = tested on: U251 glioblastoma
# UACC-257 melanoma = tested on: UACC-257 melanoma
# UACC-62 melanoma = tested on: UACC-62 melanoma
# UO-31 renal = tested on: UO-31 renal
structure (smiles),measurement,setting,value
Cc1nc(NC(=O)N2CCC[C@H]2C(N)=O)sc1-c1ccnc(C(C)(C)C(F)(F)F)c1,GI50,786-0 renal,17.4 µM
same,TGI,786-0 renal,54.8 µM
same,GI50,A549 NSCLC,6.07 µM
same,TGI,A549 NSCLC,23.7 µM
same,GI50,ACHN renal,9.43 µM
same,TGI,ACHN renal,48.7 µM
same,GI50,BT-549 breast,5.81 µM
same,TGI,BT-549 breast,28.6 µM
same,GI50,CCRF-CEM leukemia,3.51 µM
same,TGI,CCRF-CEM leukemia,15.6 µM
same,GI50,COLO 205 colon,7.15 µM
same,TGI,COLO 205 colon,43.4 µM
same,GI50,DU-145 prostate,10.8 µM
same,TGI,DU-145 prostate,33.7 µM
same,GI50,HCC-2998 colon,6.67 µM
same,TGI,HCC-2998 colon,25 µM
same,GI50,HCT-116 colon,7.62 µM
same,TGI,HCT-116 colon,42.8 µM
same,GI50,HL-60(TB) leukemia,0.727 µM
same,TGI,HL-60(TB) leukemia,9.24 µM
same,GI50,HOP-62 NSCLC,18 µM
same,TGI,HOP-62 NSCLC,> 94.3 µM
same,GI50,HOP-92 NSCLC,3.09 µM
same,TGI,HOP-92 NSCLC,20.6 µM
same,GI50,HT29 colon,1.58 µM
same,TGI,HT29 colon,33.4 µM
same,GI50,K-562 leukemia,15.6 µM
same,TGI,K-562 leukemia,35.1 µM
same,GI50,KM12 colon,25.8 µM
same,TGI,KM12 colon,> 92.8 µM
same,GI50,LOX IMVI melanoma,7.55 µM
same,TGI,LOX IMVI melanoma,28 µM
same,GI50,M14 melanoma,15 µM
same,TGI,M14 melanoma,> 74.2 µM
same,GI50,MALME-3M melanoma,6.66 µM
same,TGI,MALME-3M melanoma,29.4 µM
same,GI50,MCF7 breast,0.205 µM
same,TGI,MCF7 breast,17.8 µM
same,GI50,MDA-MB-231 breast,13.5 µM
same,TGI,MDA-MB-231 breast,48.7 µM
same,GI50,MDA-MB-435 melanoma,24.6 µM
same,TGI,MDA-MB-435 melanoma,> 80.3 µM
same,GI50,MDA-MB-468 breast,1.26 µM
same,TGI,MDA-MB-468 breast,7.64 µM
same,GI50,NCI-H460 NSCLC,2.13 µM
same,TGI,NCI-H460 NSCLC,43 µM
same,GI50,NCI-H522 lung,4.78 µM
same,TGI,NCI-H522 lung,23.8 µM
same,GI50,NCI/ADR-RES ovarian,16.5 µM
same,TGI,NCI/ADR-RES ovarian,71.9 µM
same,GI50,OVCAR-3 ovarian,6.07 µM
same,TGI,OVCAR-3 ovarian,27.8 µM
same,GI50,OVCAR-5 ovarian,5.5 µM
same,TGI,OVCAR-5 ovarian,37.4 µM
same,GI50,PC-3 prostate,5.73 µM
same,TGI,PC-3 prostate,25.4 µM
same,GI50,RPMI-8226 leukemia,7.05 µM
same,TGI,RPMI-8226 leukemia,21.7 µM
same,GI50,RXF 393 renal,5.57 µM
same,TGI,RXF 393 renal,22.5 µM
same,GI50,SF-268 CNS,12.9 µM
same,TGI,SF-268 CNS,61.2 µM
same,GI50,SF-295 CNS,9.16 µM
same,TGI,SF-295 CNS,33.5 µM
same,GI50,SF-539 CNS,12.5 µM
same,TGI,SF-539 CNS,38.3 µM
same,GI50,SK-MEL-2 melanoma,12.4 µM
same,TGI,SK-MEL-2 melanoma,26.2 µM
same,GI50,SK-MEL-28 melanoma,7.87 µM
same,TGI,SK-MEL-28 melanoma,> 83 µM
same,GI50,SK-MEL-5 melanoma,6.54 µM
same,TGI,SK-MEL-5 melanoma,14.9 µM
same,GI50,SN12C renal,14.7 µM
same,TGI,SN12C renal,80.1 µM
same,GI50,SNB-19 CNS,28.6 µM
same,TGI,SNB-19 CNS,> 100 µM
same,GI50,SNB-75 CNS,1.17 µM
same,TGI,SNB-75 CNS,8.53 µM
same,GI50,SR leukemia,3.57 µM
same,TGI,SR leukemia,15.6 µM
same,GI50,SW-620 colon,8.53 µM
same,TGI,SW-620 colon,40.2 µM
same,GI50,T-47D breast,0.0839 µM
same,TGI,T-47D breast,0.592 µM
same,GI50,TK-10 renal,4.71 µM
same,TGI,TK-10 renal,28.5 µM
same,GI50,U251 glioblastoma,10.3 µM
same,TGI,U251 glioblastoma,39.5 µM
same,GI50,UACC-257 melanoma,23 µM
same,TGI,UACC-257 melanoma,70.3 µM
same,GI50,UACC-62 melanoma,10.2 µM
same,TGI,UACC-62 melanoma,24 µM
same,GI50,UO-31 renal,8.46 µM
same,TGI,UO-31 renal,58.5 µM
CC(=O)N1CC(F)(F)c2c(Sc3ncc(N4CCC5(CC4)COC[C@H]5N)nc3N)cccc21,GI50,786-0 renal,10.7 µM
same,TGI,786-0 renal,23.5 µM
same,GI50,A549 NSCLC,14.1 µM
same,TGI,A549 NSCLC,35.2 µM
same,GI50,ACHN renal,6.61 µM
same,TGI,ACHN renal,27.1 µM
same,GI50,BT-549 breast,4.68 µM
same,TGI,BT-549 breast,22.1 µM
same,GI50,CCRF-CEM leukemia,15.3 µM
same,TGI,CCRF-CEM leukemia,28.6 µM
same,GI50,COLO 205 colon,16.6 µM
same,TGI,COLO 205 colon,32 µM
same,GI50,DU-145 prostate,19.1 µM
same,TGI,DU-145 prostate,63.1 µM
same,GI50,HCC-2998 colon,17.3 µM
same,TGI,HCC-2998 colon,32.1 µM
same,GI50,HCT-116 colon,16.2 µM
same,TGI,HCT-116 colon,30 µM
same,GI50,HL-60(TB) leukemia,10 µM
same,TGI,HL-60(TB) leukemia,21.6 µM
same,GI50,HOP-62 NSCLC,13.7 µM
same,TGI,HOP-62 NSCLC,30.9 µM
same,GI50,HOP-92 NSCLC,2.17 µM
same,TGI,HOP-92 NSCLC,14.2 µM
same,GI50,HT29 colon,3.75 µM
same,TGI,HT29 colon,12.7 µM
same,GI50,K-562 leukemia,0.774 µM
same,TGI,K-562 leukemia,13.9 µM
same,GI50,KM12 colon,2.97 µM
same,TGI,KM12 colon,13.5 µM
same,GI50,LOX IMVI melanoma,12.4 µM
same,TGI,LOX IMVI melanoma,25 µM
same,GI50,M14 melanoma,10.4 µM
same,TGI,M14 melanoma,22.4 µM
same,GI50,MALME-3M melanoma,8.55 µM
same,TGI,MALME-3M melanoma,20.8 µM
same,GI50,MCF7 breast,0.0453 µM
same,TGI,MCF7 breast,11.4 µM
same,GI50,MDA-MB-231 breast,15.3 µM
same,TGI,MDA-MB-231 breast,41.4 µM
same,GI50,MDA-MB-435 melanoma,29.1 µM
same,TGI,MDA-MB-435 melanoma,91.7 µM
same,GI50,MDA-MB-468 breast,1.52 µM
same,TGI,MDA-MB-468 breast,8.19 µM
same,GI50,NCI-H460 NSCLC,18.6 µM
same,TGI,NCI-H460 NSCLC,34.6 µM
same,GI50,NCI-H522 lung,1.56 µM
same,TGI,NCI-H522 lung,14.5 µM
same,GI50,NCI/ADR-RES ovarian,16.3 µM
same,TGI,NCI/ADR-RES ovarian,56.8 µM
same,GI50,OVCAR-3 ovarian,14.1 µM
same,TGI,OVCAR-3 ovarian,30.7 µM
same,GI50,OVCAR-5 ovarian,18.1 µM
same,TGI,OVCAR-5 ovarian,57.3 µM
same,GI50,PC-3 prostate,13.4 µM
same,TGI,PC-3 prostate,48.6 µM
same,GI50,RPMI-8226 leukemia,3.87 µM
same,TGI,RPMI-8226 leukemia,15.5 µM
same,GI50,RXF 393 renal,2.22 µM
same,TGI,RXF 393 renal,8.72 µM
same,GI50,SF-268 CNS,14.4 µM
same,TGI,SF-268 CNS,48.7 µM
same,GI50,SF-295 CNS,15.5 µM
same,TGI,SF-295 CNS,31.2 µM
same,GI50,SF-539 CNS,8.31 µM
same,TGI,SF-539 CNS,21.1 µM
same,GI50,SK-MEL-2 melanoma,16.2 µM
same,TGI,SK-MEL-2 melanoma,30.3 µM
same,GI50,SK-MEL-28 melanoma,13.1 µM
same,TGI,SK-MEL-28 melanoma,26.2 µM
same,GI50,SK-MEL-5 melanoma,15.7 µM
same,TGI,SK-MEL-5 melanoma,29.2 µM
same,GI50,SN12C renal,11.2 µM
same,TGI,SN12C renal,50.9 µM
same,GI50,SNB-19 CNS,13.6 µM
same,TGI,SNB-19 CNS,41.7 µM
same,GI50,SNB-75 CNS,5.83 µM
same,TGI,SNB-75 CNS,29.1 µM
same,GI50,SR leukemia,2.35 µM
same,TGI,SR leukemia,6.03 µM
same,GI50,SW-620 colon,11.5 µM
same,TGI,SW-620 colon,23.9 µM
same,GI50,T-47D breast,11.5 µM
same,TGI,T-47D breast,26.3 µM
same,GI50,TK-10 renal,4.9 µM
same,TGI,TK-10 renal,19.2 µM
same,GI50,U251 glioblastoma,12.7 µM
same,TGI,U251 glioblastoma,26.6 µM
same,GI50,UACC-257 melanoma,14.4 µM
same,TGI,UACC-257 melanoma,27.6 µM
same,GI50,UACC-62 melanoma,12.5 µM
same,TGI,UACC-62 melanoma,25.6 µM
same,GI50,UO-31 renal,6.39 µM
same,TGI,UO-31 renal,20.3 µM
